From patent US20230364007A1, “ADMINISTRATION OF A P[…]” (Reset Pharmaceuticals, Inc., priority 2022, published 2023)

Columns and labels:
[1] = Human simulations of psilocin exposure after SC administration; conditions: from absorption rate of rat SC model
Protocol: The model that was used is shown schematically in FIG. 6, mathematically the analytical solution is shown in equations (9)-(14).
Using the absorption rate from modelling the rat SC data and the human systemic psilocin PK parameters, human SC simulations were run over 1-12 mg doses and the simulated PK profiles can be seen in FIG. 7. […] These profiles can be seen in FIG. 8, with the summary statistics in Table 4.

[2] = One compartment SC PK model of psilocin fitted to digitised rat SC data
Protocol: Rat SC PK data was digitised for four dose levels (Higgins, G. A. et al., 2021. “Low Doses of Psilocybin and Ketamine Enhance Motivation and Attention in Poor Performing Rats: Evidence for an Antidepressant Property”. Frontiers in Pharmacology, Volume 12, p. 299). The PK was fitted using a one compartment SC model where volume was fixed to the same as human in L/kg. The model was fit to the lower 3 doses levels as the higher dose was determined to be out of the range of investigation.
A one compartment model was used with linear absorption and clearance shown schematically in […]. Mathematically, this model is a series of two linked ordinary differential equations (ODE's) given in equations (7)-(8).
Constant ka is the absorption rate constant (units 1/h), Cl is the clearance (units mL/h), Vc is the volume of distribution of the central compartment (units mL).
It is assumed that the generation of psilocin is instantaneous once psilocybin is absorbed. Due to a lack of rat IV PK data and human and rat plasma protein binding data, total rat volume of distribution (V) on ml/kg basis was fixed to the same as human total volume of distribution. A one compartment SC model gives a satisfactory fit to the absorption phase, seen in FIG. 5, this gives good confidence of the fitted ka value seen in Table 2. Bioavailability was again assumed to be 1.

[3] = Two-compartment IV bolus PK model fitted to published human psilocybin IV data; conditions: psilocin after 1 mg psilocybin IV
Protocol: All analysis was performed using the software R and RStudio, with models being defined using analytical and ODE solutions.
Derivation of system PK parameters for psilocybin/psilocin Systemic PK parameters were derived for published human bolus psilocybin IV data.
Human IV PK data for psilocin after psilocybin was administered was taken from Hasler et al. “Determination of psilocin and 4-hydroxyindole-3-acetic acid in plasma by HPLC-ECD and pharmacokinetic profiles of oral and intravenous psilocybin in man”. Pharm Acta Helv. 1997 June; 72(3):175-84. Model selection was performed by assessing visual fit to data and the respective model AIC's of a one compartment and two compartment IV PK model. These systemic human PK parameters were then used for human […] injection simulations by simulating the PK profiles over a range of doses and absorption rates.
It is assumed that the generation of psilocin is instantaneous and complete once psilocybin is absorbed.
An IV two compartment model best described the IV data from FIG. 2. A two-compartment model gave a good description of the raw data capturing the Cmax and terminal phase well, FIG. 3. The systemic PK parameters can be seen in Table 1 and there are low errors in the parameter estimates.

XRPD after micronisation = assay type: physicochemical; conditions: wet bead milling in decafluoropentane
Protocol: (§1) In order to provide a small and homogeneous particle size of psychedelic compound in the final suspensions, psilocybin and psilocin were micronised before use. Micronisation was performed by wet bead milling using decafluoropentane as the antisolvent. In a glass vial, 200 mg psychedelic compound and 2 g of 1 mm silica beads were weighed. 3 mL of the antisolvent was added for psilocybin and 2 mL for psilocin. The samples were vortexed for approximately 15 seconds then milled at 530 rpm for 60 minutes.
(§2) The micronised sample was then separated from the silica beads and transferred to a petri dish and left at room temperature to allow for evaporation of the solvent overnight (approximately 18 hours). The dried sample was then collected and characterised by PSD and XRPD.
X-ray powder diffraction (XRPD) analysis was carried out using a Bruker D2 Phaser powder diffractometer equipped with a LynxEye detector. The specimens were located at the centre of a silicon sample holder within a 5 mm pocket. The samples were continuously spun during data collection and scanned using a step size of 0.02° two theta (2θ) between 5° to 60° two theta, the detailed parameters are summarised in Table 10. The data was processed using Diffrac Plus EVA software (Version 3.1).

[4] = Solubility in excipients (preparative work)
[5] = reported; cited from earlier work
[6] = Particle size distribution (PSD) analysis by laser diffraction; assay type: physicochemical; conditions: primary pressure of 4 bar, lens R1, R3 or R5 per sample
Protocol: as §1, §2
Particle size analysis was carried out, in single analysis, by laser diffraction using a Sympatec Helos particle size analyser, equipped with a RODOS dry dispersion unit and ASPIROS feeder unit. The lens and primary pressures were varied for each compound tested.

[7] = psilocin after SC psilocybin, rat, fit to 0.05, 0.1, 1 mg/kg

CN(C)CCc1c[nH]c2cccc(O)c12 [psilocin, 4-hydroxy-N,N-dimethyltryptamine]
absorption half-life [1]: 17.9 min
dose normalised AUC ([2]; 10 mg/kg SC psilocybin dose in rats versus other doses (not shown)): considerably greater than the other doses
Cl (95% CI) [2, 7]: 2490 (2260, 2710) mL/h
ka, absorption rate constant (95% CI) [2, 7]: 2.32 (2.03, 2.61) /h
V ([2]; rat, fixed to human total volume of distribution on ml/kg basis): 1746 (Fixed) mL
Cl, clearance (95% CI) [3]: 3810 (3340, 4290) ml/min
V, volume of distribution of the central compartment (95% CI) [3]: 88600 (77300, 99900) ml
k12 (95% CI) [3]: 0.176 (0.144, 0.208) /min
k21 (95% CI) [3]: 0.0489 (0.0388, 0.0591) /min
chemical degradation upon micronisation (XRPD) (XRPD after micronisation): no significant chemical degradation upon micronisation
solubility versus pH ([4]; initial solution trials): higher solubility at acidic pH
solubility in DMSO and NMP ([4]; non-micronised): good

CN(C)CCc1c[nH]c2cccc(OP(=O)(O)O)c12 [psilocybin, [3-(2-dimethylaminoethyl)-1H-indol-4-yl] dihydrogen phosphate]
bioavailability [5]: approximately 50%
chemical degradation upon micronisation (XRPD) (XRPD after micronisation): no significant chemical degradation upon micronisation
solubility in all the excipients tested ([4]; non-micronised, 20 excipients): poor

CN(C)CCc1c[nH]c2cccc(O)c12 [Micronised psilocin]
D10 [6]: 0.44 μm

CN(C)CCc1c[nH]c2cccc(OP(=O)(O)O)c12 [Micronised psilocybin]
D10 [6]: 0.45 μm
D50 [6]: 1.20 μm
